# Values of other authors in patent US20140017187A1, “Use of 5-(7-methoxy-3,3-dimethyl-2,3-dihydro-1-benzoxepin-5-yl)-3-methyl-penta-2,4-dienoic acid as a cosmetic” (Merck Patent GmbH, priority 2008, published 2014).
# Target: T1, PPAR-alpha (Homo sapiens, UniProt Q07869)
# T1 sequence (Q07869 1-468): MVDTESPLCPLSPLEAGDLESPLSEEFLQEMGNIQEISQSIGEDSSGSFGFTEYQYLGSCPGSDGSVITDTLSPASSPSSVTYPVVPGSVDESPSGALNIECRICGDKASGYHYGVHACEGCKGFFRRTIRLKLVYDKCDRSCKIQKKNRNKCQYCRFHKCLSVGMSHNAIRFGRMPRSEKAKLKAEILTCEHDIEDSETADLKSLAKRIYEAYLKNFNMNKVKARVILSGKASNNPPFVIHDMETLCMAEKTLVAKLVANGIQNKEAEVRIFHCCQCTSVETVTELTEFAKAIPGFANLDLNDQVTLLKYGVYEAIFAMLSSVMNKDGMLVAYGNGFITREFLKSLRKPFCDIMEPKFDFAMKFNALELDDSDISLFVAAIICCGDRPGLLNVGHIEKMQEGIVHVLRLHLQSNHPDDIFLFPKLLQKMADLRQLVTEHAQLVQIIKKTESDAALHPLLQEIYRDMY
# Conditions: personal communication Johann Wiechers; cited from earlier work
substance,measurement,value
Octadecenedioic acid [O.D.A. White],PPAR-alpha activation,negligible
